Assay results from patent publication US20130012432A1, “Peptides for Treatment of Obesity” (Novo Nordisk A/S, priority 2010, published 2013).
Converted amounts (≈) assume the structure as drawn. Positions of bridges follow the written chain, without caps; N, C: chain ends. Non-standard residues stand in square brackets, D forms with d. Residues, ends and D or L forms follow the SMILES beside them. Groups on a side chain read outwards from the residue. *: point of attachment. Palmitoyl(16-(5-tetrazolyl)) = O=C(CCCCCCCCCCCCCCCc1nnn[nH]1)*; Lys(CH2CO2H)2 = N[C@@H](CCCCN(CC(=O)O)CC(=O)O)C(=O)O; X1 = O=C(O)CCCCCCCCCCCCCCCCC(=O)NCCOCCOCCN*; C17 diacid = O=C(O)CCCCCCCCCCCCCCCC(=O)*; C16 diacid = O=C(O)CCCCCCCCCCCCCCC(=O)*; C14 diacid = O=C(O)CCCCCCCCCCCCC(=O)*; NTA = O=C(O)CN(CC(=O)O)CC(=O)*; hCys = N[C@@H](CCS)C(=O)O; Orn = NCCC[C@H](N)C(=O)O; Dab = NCC[C@H](N)C(=O)O; Dap = NC[C@H](N)C(=O)O; AEEA = NCCOCCOCC(=O)O

Assays:
MC1 receptor = MC1 receptor (Homo sapiens, UniProt Q01726); assay: biochemical
MC1 receptor, sequence (Q01726 whole entry): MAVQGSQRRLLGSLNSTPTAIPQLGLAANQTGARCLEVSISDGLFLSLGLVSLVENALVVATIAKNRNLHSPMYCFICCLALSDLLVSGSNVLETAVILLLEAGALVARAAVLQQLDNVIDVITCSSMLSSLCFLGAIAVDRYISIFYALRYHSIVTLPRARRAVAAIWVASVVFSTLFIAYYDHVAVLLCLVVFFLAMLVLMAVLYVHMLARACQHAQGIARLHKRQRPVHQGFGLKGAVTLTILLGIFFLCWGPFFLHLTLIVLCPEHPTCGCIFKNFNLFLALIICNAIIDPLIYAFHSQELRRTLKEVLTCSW
Description: Assay (IV)—Melanocortin Receptor 1 (MC1) Binding Assay
The MC1 receptor binding assay was performed on BHK cell membranes stably expressing the MC1 receptor. The assay was performed in a total volume of 250 μl: 25 μl of ^125NDP-α-MSH (22 pM in final concentration), 25 μl of test compound/control and 200 μl of cell membrane (25 μg/ml). Test compounds were dissolved in DMSO. Radioactively labeled ligand, membranes and test compounds were diluted in buffer: 25 mM HEPES, pH 7.4, 0.1 mM CaCl2, 1 mM MgSO4, 1 mM EDTA, 0.1% HSA and 0.005% Tween™ 20. Alternatively, HSA may be substituted with ovalbumin. The samples were incubated at 30° C. for 90 min. in Costar round-bottom microtiter plates. Incubation was terminated by filtration on a Packard harvester filtermate. Rapid filtration through Packard Unifilter-96 GF/B filters pre-treated with polyetylenimine (PerkinElmer 6005277). The filters were washed with ice-cold 0.9% NaCl 8-10 times. The plates were air-dried at app. 55° C. for 30 min, and 50 μl Microscint 0 (Packard, cat. No. 6013616) was added to each well. The plates were counted in a Topcounter (1 min/well).
The data were analysed by non-linear regression analysis of binding curves, using the Windows™ program GraphPad™ Prism (GraphPad Software, USA).

physchem = assay: physchem
Description: From a stock solution in vehicle, either H2O or 10 mM phosphate, containing 1 mg (as weighed) compound per ml, 8-11 aliquots are withdrawn and pH-adjusted individually with HCl/NaOH, to cover the whole pH range.

CC(=O)N[C@H]1CCSSC[C@@H](C(=O)N2CCC[C@H]2C(=O)N2CCC[C@H]2C(=O)N[C@@H](CCCCN)C(=O)N[C@@H](CC(=O)O)C(=O)N[C@@H](CNC(=O)CN(CC(=O)O)CC(=O)O)C(=O)N[C@@H](CCCCNC(=O)COCCOCCNC(=O)CCCCCCCCCCCCCCCc2nnn[nH]2)C(=O)O)NC(=O)[C@H](Cc2c[nH]c3ccccc23)NC(=O)[C@H](CCCNC(=N)N)NC(=O)[C@@H](Cc2ccccc2)NC(=O)[C@H](Cc2c[nH]cn2)NC1=O [Example 4, Ac-c[homoCys-His-D-Phe-Arg-Trp-Cys]-Pro-Pro-Lys-Asp-Dap(BCMA)-Lys[(2-{2-[16-(tetrazol-5-yl)hexadecanoylamino]ethoxy}ethoxy)acetyl]-OH] (Ac-[hCys]H[dF]RWCPPKD[Dap](NTA)K([AEEA-Palmitoyl(16-(5-tetrazolyl))])-OH; disulfide 1-6)
Ki (MC1 receptor): > 10 µM

CC(=O)N[C@H]1CCCCNC(=O)CC[C@@H](C(=O)N2CCC[C@H]2C(=O)N2CCC[C@H]2C(=O)N[C@@H](Cc2c[nH]cn2)C(=O)N[C@@H](CCC(=O)O)C(=O)N[C@@H](CCCCN(CC(=O)O)CC(=O)O)C(=O)N[C@@H](CCCCNC(=O)COCCOCCNC(=O)CCCCCCCCCCCCCCCC(=O)O)C(N)=O)NC(=O)[C@H](Cc2c[nH]c3ccccc23)NC(=O)[C@H](CCCNC(=N)N)NC(=O)[C@@H](Cc2ccccc2)NC(=O)[C@H](Cc2c[nH]cn2)NC1=O [Example 7, Ac-c[Lys-His-D-Phe-Arg-Trp-Glu]-Pro-Pro-His-Glu-Lys(biscarboxymethyl)-Lys({2-[2-(16-carboxyhexadecanoylamino)ethoxy]ethoxy}acetyl)-NH2] (Ac-KH[dF]RWEPPHE[Lys(CH2CO2H)2]K([AEEA-C17 diacid])-NH2; lactam 1-6)
Ki (MC1 receptor): > 10 µM
solubility (physchem; pH 5.8, Solubility Conc.): 121 µM (≈ 264 µg/mL)
solubility (physchem; pH 6.3, Solubility Conc.): 173 µM (≈ 378 µg/mL)
solubility (physchem; pH 6.6, Solubility Conc.): 295 µM (≈ 645 µg/mL)
solubility (physchem; pH 6.7, Solubility Conc.): 408 µM (≈ 892 µg/mL)
solubility (physchem; pH 6.9, Solubility Conc.): 434 µM (≈ 949 µg/mL)
solubility (physchem; pH 7.2, Solubility Conc.): 417 µM (≈ 911 µg/mL)
solubility (physchem; pH 7.4, Solubility Conc.): 438 µM (≈ 957 µg/mL)
solubility (physchem; pH 7.6, Solubility Conc.): 448 µM (≈ 979 µg/mL)
solubility (physchem; pH 8, Solubility Conc.): 436 µM (≈ 953 µg/mL)

CC(=O)N[C@H]1CCNC(=O)C[C@@H](C(=O)N2CCC[C@H]2C(=O)N2CCC[C@H]2C(=O)N[C@@H](CCCNC(=N)N)C(=O)N[C@@H](CCC(=O)O)C(=O)N[C@@H](CCCCN(CC(=O)O)CC(=O)O)C(=O)N[C@@H](CO)C(=O)N[C@@H](CO)C(=O)NCCOCCOCCNC(=O)CCCCCCCCCCCCCCCCC(=O)O)NC(=O)[C@H](Cc2c[nH]c3ccccc23)NC(=O)[C@H](CCCNC(=N)N)NC(=O)[C@@H](Cc2ccccc2)NC(=O)[C@H](Cc2c[nH]cn2)NC1=O [Example 9, Ac-c[Dab-His-D-Phe-Arg-Trp-Asp]-Pro-Pro-Arg-Glu-Lys(biscarboxymethyl)-Ser-Ser-NH(2-{2-[2-(17-carboxyheptadecanoylamino)ethoxy]ethoxy}ethyl)] (Ac-[Dab]H[dF]RWDPPRE[Lys(CH2CO2H)2]SS-X1; lactam 1-6)
Ki (MC1 receptor): > 10 µM
solubility (physchem; pH 4.7, Solubility Conc.): 26 µM (≈ 57.4 µg/mL)
solubility (physchem; pH 5.2, Solubility Conc.): 22 µM (≈ 48.6 µg/mL)
solubility (physchem; pH 5.3, Solubility Conc.): 40 µM (≈ 88.3 µg/mL)
solubility (physchem; pH 6.6, Solubility Conc.): 79 µM (≈ 174 µg/mL)
solubility (physchem; pH 7.3, Solubility Conc.): 158 µM (≈ 349 µg/mL)
solubility (physchem; pH 7.4, Solubility Conc.): 183 µM (≈ 404 µg/mL)
solubility (physchem; pH 7.7, Solubility Conc.): 242 µM (≈ 534 µg/mL)
solubility (physchem; pH 7.9, Solubility Conc.): 259 µM (≈ 572 µg/mL)
solubility (physchem; pH 8.2, Solubility Conc.): 280 µM (≈ 618 µg/mL)

CC(=O)N[C@H]1CCCNC(=O)C[C@@H](C(=O)N2CCC[C@H]2C(=O)N2CCC[C@H]2C(=O)N[C@@H](Cc2c[nH]cn2)C(=O)N[C@@H](CCC(=O)O)C(=O)N[C@@H](CCCCN(CC(=O)O)CC(=O)O)C(=O)N[C@@H](CCCCNC(=O)COCCOCCNC(=O)CCCCCCCCCCCCCCCc2nnn[nH]2)C(N)=O)NC(=O)[C@H](Cc2c[nH]c3ccccc23)NC(=O)[C@H](CCCNC(=N)N)NC(=O)[C@@H](Cc2ccccc2)NC(=O)[C@H](Cc2c[nH]cn2)NC1=O [Example 10, Ac-c[Orn-His-D-Phe-Arg-Trp-Asp]-Pro-Pro-His-Glu-Lys(biscarboxymethyl)-Lys[(2-{2-[16-(tetrazol-5-yl)hexadecanoylamino]ethoxy}ethoxy)acetyl]-NH2] (Ac-[Orn]H[dF]RWDPPHE[Lys(CH2CO2H)2]K([AEEA-Palmitoyl(16-(5-tetrazolyl))])-NH2; lactam 1-6)
Ki (MC1 receptor): > 10 µM
solubility (physchem; pH 6, Solubility Conc.): 35 µM (≈ 76.4 µg/mL)
solubility (physchem; pH 6.4, Solubility Conc.): 88 µM (≈ 192 µg/mL)
solubility (physchem; pH 6.6, Solubility Conc.): 287 µM (≈ 626 µg/mL)
solubility (physchem; pH 6.7, Solubility Conc.): 514 µM (≈ 1120 µg/mL)
solubility (physchem; pH 7, Solubility Conc.): 517 µM (≈ 1130 µg/mL)
solubility (physchem; pH 7.3, Solubility Conc.): 517 µM (≈ 1130 µg/mL)
solubility (physchem; pH 7.4, Solubility Conc.): 516 µM (≈ 1130 µg/mL)
solubility (physchem; pH 7.7, Solubility Conc.): 521 µM (≈ 1140 µg/mL)
solubility (physchem; pH 8, Solubility Conc.): 531 µM (≈ 1160 µg/mL)

CC(=O)N[C@H]1CSSC[C@@H](C(=O)N2CCC[C@H]2C(=O)N2CCC[C@H]2C(=O)N[C@@H](CCCCN)C(=O)N[C@@H](CCC(=O)O)C(=O)N[C@@H](CCCCN(CC(=O)O)CC(=O)O)C(=O)N[C@@H](CCCCNC(=O)COCCOCCNC(=O)CCCCCCCCCCCCCCC(=O)O)C(N)=O)NC(=O)CNC(=O)[C@H](Cc2c[nH]c3ccccc23)NC(=O)[C@H](CCCNC(=N)N)NC(=O)[C@@H](Cc2ccccc2)NC(=O)[C@H](Cc2c[nH]cn2)NC(=O)[C@H](CCC(=O)O)NC1=O [Example 59, Ac-c[Cys-Glu-His-D-Phe-Arg-Trp-Gly-Cys]-Pro-Pro-Lys-Glu-Lys(biscarboxymethyl)-Lys({2-[2-(15-carboxypentadecanoylamino)ethoxy]ethoxy}acetyl)-NH2] (Ac-CEH[dF]RWGCPPKE[Lys(CH2CO2H)2]K([AEEA-C16 diacid])-NH2; disulfide 1-8)
Ki (MC1 receptor): > 10 µM

CC(=O)N[C@H]1CCSSC[C@@H](C(=O)N2CCC[C@H]2C(=O)N2CCC[C@H]2C(=O)N[C@@H](CCCCN)C(=O)N[C@@H](CC(=O)O)C(=O)N[C@@H](CCCCNC(=O)CN(CC(=O)O)CC(=O)O)C(=O)N[C@@H](CCCCNC(=O)COCCOCCNC(=O)CCCCCCCCCCCCCCCc2nnn[nH]2)C(N)=O)NC(=O)[C@H](Cc2c[nH]c3ccccc23)NC(=O)[C@H](CCCNC(=N)N)NC(=O)[C@@H](Cc2ccccc2)NC(=O)[C@H](Cc2c[nH]cn2)NC1=O [Example 65, Ac-c[homoCys-His-D-Phe-Arg-Trp-Cys]-Pro-Pro-Lys-Asp-Lys(BCMA)-Lys[(2-{2-[16-(tetrazol-5-yl)hexadecanoylamino]ethoxy}ethoxy)acetyl]-NH2] (Ac-[hCys]H[dF]RWCPPKDK(NTA)K([AEEA-Palmitoyl(16-(5-tetrazolyl))])-NH2; disulfide 1-6)
Ki (MC1 receptor): > 10 µM

CC(=O)N[C@H]1CCSSC[C@@H](C(=O)N2CCC[C@H]2C(=O)N2CCC[C@H]2C(=O)N[C@@H](CCCCN)C(=O)N[C@@H](CC(=O)O)C(=O)N[C@@H](CNC(=O)CN(CC(=O)O)CC(=O)O)C(=O)N[C@@H](CCCCNC(=O)COCCOCCNC(=O)CCCCCCCCCCCCC(=O)O)C(N)=O)NC(=O)[C@H](Cc2c[nH]c3ccccc23)NC(=O)[C@H](CCCNC(=N)N)NC(=O)[C@@H](Cc2ccccc2)NC(=O)[C@H](Cc2c[nH]cn2)NC1=O [Example 69, Ac-c[homoCys-His-D-Phe-Arg-Trp-Cys]-Pro-Pro-Lys-Asp-Dap(BCMA)-Lys({2-[2-(13-carboxytridecanoylamino)ethoxy]ethoxy}acetyl)-NH2] (Ac-[hCys]H[dF]RWCPPKD[Dap](NTA)K([AEEA-C14 diacid])-NH2; disulfide 1-6)
Ki (MC1 receptor): > 10 µM
